Measured values published in US8192962B2, “Processes for detecting toxic substances” (Daikin Industries, Ltd., priority 2001, dated 2012).

System: Genes belonging to other category
Test: DNA chip mRNA expression in yeast, genes belonging to other category (Table 9)
Assay type: cell-based, Saccharomyces cerevisiae S288C
Method in brief: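 Chemical exposure: 2 h, log-phase S. cerevisiae S288C, YPD, 25° C., dose set to inhibit growth without death. Profiling: mRNA labeled by reverse transcription with Cy3- or Cy5-dUTP, hybridized to whole-genome array. Output: fluorescence ratio against untreated culture.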

For `CN(C)C(=S)SSC(=S)N(C)C` [(10), Tetramethylthiuram disulfide], the “The level of expressed mRNA in the presence of chemical substance/The level of expressed mRNA in the absence of chemical substance” value (yeast gene YAR009C) was 1.4, the “The level of expressed mRNA in the presence of chemical substance/The level of expressed mRNA in the absence of chemical substance” value (yeast gene YAR010C) was 1.1 and the “The level of expressed mRNA in the presence of chemical substance/The level of expressed mRNA in the absence of chemical substance” value (yeast gene YBL005W-A) was 1.5. For the same compound, the “The level of expressed mRNA in the presence of chemical substance/The level of expressed mRNA in the absence of chemical substance” value (yeast gene YBL041W) was 2.6, the “The level of expressed mRNA in the presence of chemical substance/The level of expressed mRNA in the absence of chemical substance” value (yeast gene YBL043W) was 14.7 and the “The level of expressed mRNA in the presence of chemical substance/The level of expressed mRNA in the absence of chemical substance” value (yeast gene YBL078C) was 15.2. The “The level of expressed mRNA in the presence of chemical substance/The level of expressed mRNA in the absence of chemical substance” value (yeast gene YBL101C) was 1.4, the “The level of expressed mRNA in the presence of chemical substance/The level of expressed mRNA in the absence of chemical substance” value (yeast gene YBR010W) was 0.7 and the “The level of expressed mRNA in the presence of chemical substance/The level of expressed mRNA in the absence of chemical substance” value (yeast gene YBR031W) was 1.0. For the same compound, the “The level of expressed mRNA in the presence of chemical substance/The level of expressed mRNA in the absence of chemical substance” value (yeast gene YBR170C) was 4.2, the “The level of expressed mRNA in the presence of chemical substance/The level of expressed mRNA in the absence of chemical substance” value (yeast gene YBR201W) was 1.0 and the “The level of expressed mRNA in the presence of chemical substance/The level of expressed mRNA in the absence of chemical substance” value (yeast gene YBR214W) was 3.5. For the same compound, the “The level of expressed mRNA in the presence of chemical substance/The level of expressed mRNA in the absence of chemical substance” value (yeast gene YBR239C) was 1.2, the “The level of expressed mRNA in the presence of chemical substance/The level of expressed mRNA in the absence of chemical substance” value (yeast gene YBR286W) was 1.6 and the “The level of expressed mRNA in the presence of chemical substance/The level of expressed mRNA in the absence of chemical substance” value (yeast gene YBR290W) was 1.8. For the same compound, the “The level of expressed mRNA in the presence of chemical substance/The level of expressed mRNA in the absence of chemical substance” value (yeast gene YCL020W) was 2.4, the “The level of expressed mRNA in the presence of chemical substance/The level of expressed mRNA in the absence of chemical substance” value (yeast gene YCL027W) was 16.3 and the “The level of expressed mRNA in the presence of chemical substance/The level of expressed mRNA in the absence of chemical substance” value (yeast gene YCL033C) was 1.4. For the same compound, the “The level of expressed mRNA in the presence of chemical substance/The level of expressed mRNA in the absence of chemical substance” value (yeast gene YCR004C) was 2.1, the “The level of expressed mRNA in the presence of chemical substance/The level of expressed mRNA in the absence of chemical substance” value (yeast gene YCR062W) was 1.3 and the “The level of expressed mRNA in the presence of chemical substance/The level of expressed mRNA in the absence of chemical substance” value (yeast gene YCR071C) was 1.2. For the same compound, the “The level of expressed mRNA in the presence of chemical substance/The level of expressed mRNA in the absence of chemical substance” value (yeast gene YCR088W) was 0.9, the “The level of expressed mRNA in the presence of chemical substance/The level of expressed mRNA in the absence of chemical substance” value (yeast gene YCR091W) was 1.2 and the “The level of expressed mRNA in the presence of chemical substance/The level of expressed mRNA in the absence of chemical substance” value (yeast gene YDL008W) was 3.0. For the same compound, the “The level of expressed mRNA in the presence of chemical substance/The level of expressed mRNA in the absence of chemical substance” value (yeast gene YDL097C) was 2.3, the “The level of expressed mRNA in the presence of chemical substance/The level of expressed mRNA in the absence of chemical substance” value (yeast gene YDL238C) was 2.7 and the “The level of expressed mRNA in the presence of chemical substance/The level of expressed mRNA in the absence of chemical substance” value (yeast gene YDR055W) was 2.4. The “The level of expressed mRNA in the presence of chemical substance/The level of expressed mRNA in the absence of chemical substance” value (yeast gene YDR080W) was 2.6, the “The level of expressed mRNA in the presence of chemical substance/The level of expressed mRNA in the absence of chemical substance” value (yeast gene YDR084C) was 0.6 and the “The level of expressed mRNA in the presence of chemical substance/The level of expressed mRNA in the absence of chemical substance” value (yeast gene YDR085C) was 2.3. For the same compound, the “The level of expressed mRNA in the presence of chemical substance/The level of expressed mRNA in the absence of chemical substance” value (yeast gene YDR104C) was 2.7, the “The level of expressed mRNA in the presence of chemical substance/The level of expressed mRNA in the absence of chemical substance” value (yeast gene YDR115W) was 1.0 and the “The level of expressed mRNA in the presence of chemical substance/The level of expressed mRNA in the absence of chemical substance” value (yeast gene YDR169C) was 1.4. For the same compound, the “The level of expressed mRNA in the presence of chemical substance/The level of expressed mRNA in the absence of chemical substance” value (yeast gene YDR188W) was 1.6, the “The level of expressed mRNA in the presence of chemical substance/The level of expressed mRNA in the absence of chemical substance” value (yeast gene YDR259C) was 1.8 and the “The level of expressed mRNA in the presence of chemical substance/The level of expressed mRNA in the absence of chemical substance” value (yeast gene YDR264C) was 3.4. The “The level of expressed mRNA in the presence of chemical substance/The level of expressed mRNA in the absence of chemical substance” value (yeast gene YDR276C) was 2.7, the “The level of expressed mRNA in the presence of chemical substance/The level of expressed mRNA in the absence of chemical substance” value (yeast gene YDR315C) was 1.6 and the “The level of expressed mRNA in the presence of chemical substance/The level of expressed mRNA in the absence of chemical substance” value (yeast gene YDR329C) was 1.0. For the same compound, the “The level of expressed mRNA in the presence of chemical substance/The level of expressed mRNA in the absence of chemical substance” value (yeast gene YDR358W) was 3.2, the “The level of expressed mRNA in the presence of chemical substance/The level of expressed mRNA in the absence of chemical substance” value (yeast gene YDR378C) was 1.3 and the “The level of expressed mRNA in the presence of chemical substance/The level of expressed mRNA in the absence of chemical substance” value (yeast gene YDR388W) was 0.9. For the same compound, the “The level of expressed mRNA in the presence of chemical substance/The level of expressed mRNA in the absence of chemical substance” value (yeast gene YDR427W) was 2.0, the “The level of expressed mRNA in the presence of chemical substance/The level of expressed mRNA in the absence of chemical substance” value (yeast gene YDR432W) was 0.8 and the “The level of expressed mRNA in the presence of chemical substance/The level of expressed mRNA in the absence of chemical substance” value (yeast gene YDR481C) was 1.6.
